Laboratory results reported in ChEMBL document CHEMBL1155543 (Bioorg Med Chem Lett, 2010).

How the values were obtained:
Carbonic anhydrase 3 = Carbonic anhydrase 3 (Homo sapiens, UniProt P07451)
Carbonic anhydrase 13 = Carbonic anhydrase 13 (Mus musculus, UniProt Q9D6N1)
Carbonic anhydrase 6 = Carbonic anhydrase 6 (Homo sapiens, UniProt P23280)
Carbonic anhydrase 12 = Carbonic anhydrase 12 (Homo sapiens, UniProt O43570)
[1] = target: Carbonic anhydrase 5B, mitochondrial (Homo sapiens, UniProt Q9Y2D0)
[2] = target: Carbonic anhydrase 5A, mitochondrial (Homo sapiens, UniProt P35218)
Carbonic anhydrase 4 = Carbonic anhydrase 4 (Homo sapiens, UniProt P22748)
Carbonic anhydrase 7 = Carbonic anhydrase 7 (Homo sapiens, UniProt P43166)
Carbonic anhydrase 14 = Carbonic anhydrase 14 (Homo sapiens, UniProt Q9ULX7)
Carbonic anhydrase 15 = target: T1, Carbonic anhydrase 15 (Mus musculus, UniProt Q99N23)
T1 sequence (Q99N23 whole entry): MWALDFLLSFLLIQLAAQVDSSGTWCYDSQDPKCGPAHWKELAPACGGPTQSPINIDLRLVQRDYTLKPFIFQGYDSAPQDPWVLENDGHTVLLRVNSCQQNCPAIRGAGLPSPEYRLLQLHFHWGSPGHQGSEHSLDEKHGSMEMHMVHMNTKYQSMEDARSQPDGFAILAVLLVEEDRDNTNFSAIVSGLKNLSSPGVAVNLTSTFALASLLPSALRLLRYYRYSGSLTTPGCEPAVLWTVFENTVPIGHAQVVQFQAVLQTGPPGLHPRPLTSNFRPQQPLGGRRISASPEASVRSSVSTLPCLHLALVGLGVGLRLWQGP

Carbonic anhydrase 3, sequence (P07451 whole entry): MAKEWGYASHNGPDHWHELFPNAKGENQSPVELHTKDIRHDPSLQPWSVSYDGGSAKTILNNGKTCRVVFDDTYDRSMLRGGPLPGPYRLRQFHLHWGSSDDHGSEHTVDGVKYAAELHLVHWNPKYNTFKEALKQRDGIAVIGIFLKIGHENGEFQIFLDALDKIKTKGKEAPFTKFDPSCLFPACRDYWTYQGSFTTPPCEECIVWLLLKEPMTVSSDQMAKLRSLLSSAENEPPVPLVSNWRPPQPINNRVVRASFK
Carbonic anhydrase 5B, mitochondrial, sequence (Q9Y2D0 whole entry): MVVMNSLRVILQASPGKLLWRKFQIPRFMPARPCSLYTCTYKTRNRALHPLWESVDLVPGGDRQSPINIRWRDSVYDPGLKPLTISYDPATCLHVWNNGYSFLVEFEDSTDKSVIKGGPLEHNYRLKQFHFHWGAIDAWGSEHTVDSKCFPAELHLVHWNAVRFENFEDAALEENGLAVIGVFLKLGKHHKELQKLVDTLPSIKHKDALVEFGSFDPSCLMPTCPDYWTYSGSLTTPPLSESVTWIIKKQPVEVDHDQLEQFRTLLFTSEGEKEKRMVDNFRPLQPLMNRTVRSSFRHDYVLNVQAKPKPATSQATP
Carbonic anhydrase 6, sequence (P23280 whole entry): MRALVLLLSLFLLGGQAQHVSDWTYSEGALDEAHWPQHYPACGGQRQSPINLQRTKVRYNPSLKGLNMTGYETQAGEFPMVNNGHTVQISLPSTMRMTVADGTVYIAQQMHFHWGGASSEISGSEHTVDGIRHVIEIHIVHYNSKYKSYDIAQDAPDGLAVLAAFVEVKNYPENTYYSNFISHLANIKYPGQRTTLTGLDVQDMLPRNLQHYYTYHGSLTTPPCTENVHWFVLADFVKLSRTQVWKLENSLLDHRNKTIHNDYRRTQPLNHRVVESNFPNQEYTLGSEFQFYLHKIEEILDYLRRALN
Carbonic anhydrase 13, sequence (Q9D6N1 whole entry): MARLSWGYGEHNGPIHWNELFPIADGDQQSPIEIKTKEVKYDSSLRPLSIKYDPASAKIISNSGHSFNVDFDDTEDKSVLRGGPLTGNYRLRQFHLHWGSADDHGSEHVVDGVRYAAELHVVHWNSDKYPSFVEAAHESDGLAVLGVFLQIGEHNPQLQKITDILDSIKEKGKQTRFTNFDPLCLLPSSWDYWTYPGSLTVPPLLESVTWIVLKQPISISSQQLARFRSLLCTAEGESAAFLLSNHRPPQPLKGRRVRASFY
Carbonic anhydrase 5A, mitochondrial, sequence (P35218 whole entry): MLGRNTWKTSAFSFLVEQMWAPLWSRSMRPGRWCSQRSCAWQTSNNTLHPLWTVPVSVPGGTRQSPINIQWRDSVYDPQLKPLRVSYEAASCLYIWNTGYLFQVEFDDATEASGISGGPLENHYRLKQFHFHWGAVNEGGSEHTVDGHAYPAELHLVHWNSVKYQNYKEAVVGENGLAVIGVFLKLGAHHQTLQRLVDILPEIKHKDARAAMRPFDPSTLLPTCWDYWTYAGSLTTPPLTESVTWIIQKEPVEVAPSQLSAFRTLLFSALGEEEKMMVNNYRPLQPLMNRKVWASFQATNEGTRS
Carbonic anhydrase 7, sequence (P43166 whole entry): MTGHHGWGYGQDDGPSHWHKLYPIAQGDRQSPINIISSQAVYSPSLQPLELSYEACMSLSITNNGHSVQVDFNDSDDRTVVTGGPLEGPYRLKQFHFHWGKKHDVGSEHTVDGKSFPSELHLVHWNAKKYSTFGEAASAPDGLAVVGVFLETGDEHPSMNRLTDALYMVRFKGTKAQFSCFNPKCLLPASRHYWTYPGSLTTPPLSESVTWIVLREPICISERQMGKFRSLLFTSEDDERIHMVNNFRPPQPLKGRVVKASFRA
Carbonic anhydrase 14, sequence (Q9ULX7 whole entry): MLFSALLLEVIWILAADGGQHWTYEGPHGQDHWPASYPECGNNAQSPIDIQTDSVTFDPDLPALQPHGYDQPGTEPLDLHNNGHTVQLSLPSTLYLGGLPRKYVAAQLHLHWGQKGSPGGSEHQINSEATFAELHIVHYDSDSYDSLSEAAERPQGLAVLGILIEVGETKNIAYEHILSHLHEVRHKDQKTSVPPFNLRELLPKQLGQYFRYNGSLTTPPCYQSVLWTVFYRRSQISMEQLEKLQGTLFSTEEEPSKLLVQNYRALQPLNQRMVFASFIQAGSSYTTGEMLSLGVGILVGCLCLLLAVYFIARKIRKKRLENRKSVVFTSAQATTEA
Carbonic anhydrase 12, sequence (O43570 whole entry): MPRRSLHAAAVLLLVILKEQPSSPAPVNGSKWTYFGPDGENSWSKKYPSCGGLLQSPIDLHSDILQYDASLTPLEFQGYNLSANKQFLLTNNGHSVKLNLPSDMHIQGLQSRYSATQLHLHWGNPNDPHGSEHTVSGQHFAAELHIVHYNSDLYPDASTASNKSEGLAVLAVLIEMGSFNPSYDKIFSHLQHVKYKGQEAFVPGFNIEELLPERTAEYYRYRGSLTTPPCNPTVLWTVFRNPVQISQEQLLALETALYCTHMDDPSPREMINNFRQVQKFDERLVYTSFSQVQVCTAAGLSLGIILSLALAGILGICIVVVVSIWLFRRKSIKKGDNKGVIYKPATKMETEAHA
Carbonic anhydrase 4, sequence (P22748 whole entry): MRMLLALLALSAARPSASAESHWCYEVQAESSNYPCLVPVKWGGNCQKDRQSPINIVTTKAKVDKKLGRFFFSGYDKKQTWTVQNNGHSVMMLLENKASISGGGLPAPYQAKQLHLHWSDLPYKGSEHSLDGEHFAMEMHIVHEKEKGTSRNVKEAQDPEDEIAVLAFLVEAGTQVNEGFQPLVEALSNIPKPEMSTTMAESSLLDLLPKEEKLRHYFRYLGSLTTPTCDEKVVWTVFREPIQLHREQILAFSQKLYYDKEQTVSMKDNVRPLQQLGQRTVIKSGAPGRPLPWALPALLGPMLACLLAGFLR

Ki (Carbonic anhydrase 3) | Ki (Carbonic anhydrase 13) | Ki (Carbonic anhydrase 6) | Ki (Carbonic anhydrase 12) | Ki [1] | Ki [2] | Ki (Carbonic anhydrase 4) | Ki (Carbonic anhydrase 7) | Ki (Carbonic anhydrase 14) | Ki (Carbonic anhydrase 15) | SMILES
1090 µM | – | – | – | – | – | – | – | – | – | NS(N)(=O)=O [SULFAMIDE]
8.77 µM | 0.994 µM | 0.749 µM | 0.0089 µM | 0.075 µM | 0.087 µM | 8.62 µM | 0.084 µM | 0.0071 µM | 0.089 µM | CC1(C)OB(c2ccc(NS(N)(=O)=O)cc2)OC1(C)C
4000 µM | – | – | – | – | – | – | – | – | – | CC1(C)O[C@@H]2[C@@H](CO[C@@]3(CNS(N)(=O)=O)OC(C)(C)O[C@@H]23)O1
